# pKi: −log10 of the molar value. Where two headings read alike, the source gives them in different places.
# Legend:
# male Wistar rats = assay: Acute intake experiment in animals fasting for 24 hours; assay type: in vivo, rat; conditions: rats fasted 24 hours, food given 30 min after injection, n=8
# Experimental: All the in vivo experiments were performed using male Wistar rats weighing 200-500 g. The animals were housed in individual cages in a room with controlled temperature (23° C.) and humidity (50%) with a 12/12 light and dark cycle. The animals had access to water and food ad libitum except in specific experimental methods. The animals were manipulated once a day for this two days before the experimental sessions. All the products were dissolved in a mixture of DMSO (5%), Tween 60 (5%)/saline (90%). The in vivo experiments included the analysis of intake and effects on general behavior. None of the assayed compounds altered the general behavior of the animal but some reduced the animal's appetite (FIGS. 1 to 8).
# The acute effect on the intake of all the products was tested in animals fasting for 24 hours.
# Thirty minutes after injection, previously weighed food was put in the cage. The food was weighed 30, 60, 120 and 240 minutes after starting the test. All the intake experiments were performed with groups of 8 animals (n=8) (FIGS. 1 to 8). […] The compounds (Z)-1-(2-phenylethoxy)octadec-9-ene (Example 3, FIG. 1) and (Z)-1-(2-(3,4-methylenedioxyphenyl)ethoxy)octadec-9-ene (Example 2, FIG. 3) reduced intake by about 25%. All the compounds had long-term effects, the reduction of intake being significant 4 hours after administration.
# CB1 receptor = target: T1, CB1 receptor (Rattus norvegicus, UniProt P20272); assay: Ligand-receptor assay for the CB1 receptor, displacement of [3H] SR141716; assay type: binding; conditions: rat cerebellum membranes; for pKi: read-out: CB1 Ki
# T1 construct: displace [^3H]; from tissue; host or cells: rat cerebellum membranes
# T1 sequence (P20272 whole entry): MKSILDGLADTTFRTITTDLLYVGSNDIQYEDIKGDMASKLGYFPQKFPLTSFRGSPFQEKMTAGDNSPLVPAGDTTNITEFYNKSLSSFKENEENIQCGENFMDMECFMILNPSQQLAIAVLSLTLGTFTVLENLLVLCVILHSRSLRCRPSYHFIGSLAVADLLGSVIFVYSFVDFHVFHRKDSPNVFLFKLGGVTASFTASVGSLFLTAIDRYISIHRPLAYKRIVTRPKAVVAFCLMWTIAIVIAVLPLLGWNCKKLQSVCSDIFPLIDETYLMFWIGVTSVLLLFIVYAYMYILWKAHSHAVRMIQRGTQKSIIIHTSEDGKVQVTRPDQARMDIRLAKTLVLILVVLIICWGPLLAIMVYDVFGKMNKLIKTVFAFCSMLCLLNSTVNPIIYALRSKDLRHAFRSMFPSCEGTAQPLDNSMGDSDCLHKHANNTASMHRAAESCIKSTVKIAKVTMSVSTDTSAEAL
# Experimental: The ligand-receptor assay for the CB1 receptor evaluates the capacity of the synthesized compounds to displace [^3H]
# The ligand-receptor assay was performed using the CB1 labeled antagonist, [^3H] […] 450 μL of pH-regulating solution A (50 mM Tris pH=7.4 with 0.5% bovine serum albumin (BSA)), 100-200 μg rat cerebellum membranes, the diluted product and the labeled CB1 antagonist, [^3H] […] After incubating for […] at 37° C., the reaction was stopped with 1 mL of pH-regulating solution A. The mixture was centrifuged at 5000 rpm for 5 minutes. The supernatant was discarded and the pellet washed with another 1 mL of pH-regulating solution A, centrifuged and the supernatant one again was discarded. Scintillation liquid was added and the samples were read in a beta particle counter (Liquid Scintillation Analyzer, Tri-Carb 2100 TR, PACKARD, Packard Bioscience Company).
# LDL = assay: Conjugated dienes experiment, copper-induced LDL oxidation; assay type: biochemical, human; conditions: compounds at 0.5, 1 and 3 μM
# Experimental: Blood from healthy, fasting volunteers is collected in tubes containing 1 g/L of EDTA. The plasma is prepared by centrifugation at 1,000 g and 4° C. for 15 minutes. LDL is isolated by sequential ultracentrifugation. Native LDL is dialyzed by size exclusion chromatography in Sephadex G25 columns (Pharmacia, Uppsala, Sweden), with 2.7 ml of 0.01 mol pH 7.4 phosphate buffer (PB) at 4° C. The apolipoprotein B100 content is determined by immunoturbidimetry (ABX Diagnostics—Montpellier, France).
# Dialyzed LDL (final concentration of 0.06 g of Apo-B/L) in PB at a final volume of 150 μL was incubated in a […] ELISA plate (flat bottom, transparent to UV, Corning®) with 10 μL of methanol in the presence or absence (control) of the compounds object of the study. 10 μL of a 100 μM copper sulfate solution (final concentration of […]) are then added. To minimize evaporation during prolonged incubation periods, 10 μL of mineral oil (Sigma-Aldrich) are added on the surface of the reaction mixture. […] The absorbance at 234 nm is continuously monitored every 15 minutes for 24 hours in an Infinite M200 plate reader (TECAN IBERICA, Männedorf, Switzerland). The controls and the samples (containing concentrations of the compounds to be assayed of 0.5, 1 and 3 μM) were evaluated in the same assay in duplicate and each experiment was repeated three times. […]
SMILES,reduction of intake with respect to the control group (male Wistar rats),CB1 Ki (M) (CB1 receptor),CB1 pKi (CB1 receptor),pKi (CB1 receptor),LDL antioxidant activity (lag-time until formation of conjugated dienes) (LDL),Ki (CB1 receptor; read-out: CB1 pKi (converted)) [µM]
"CCCCCCCC/C=C\CCCCCCCCOCCc1ccc2c(c1)OCO2 [Example 2, (Z)-1-(2-(3,4-methylenedioxyphenyl)ethoxy)octadec-9-ene]",about 25%,No affinity,No affinity,–,–,–
"CCCCCCCC/C=C\CCCCCCCCOCCc1ccccc1 [Example 3, (Z)-1-(2-phenylethoxy)octadec-9-ene]",about 25%,No affinity,No affinity,–,–,–
"CCCCC/C=C\C/C=C\CCCCCCCCOCCc1ccc2c(c1)OCO2 [Example 5, (9Z,12Z)-1-(2-(3,4-methylenedioxyphenyl)ethoxy)-octadeca-9,12-diene]",–,–,–,4.65,–,–
"CCCCC/C=C\C/C=C\CCCCCCCCOCCc1ccc(O)c(O)c1 [Example 10, (9Z,12Z)-1-(2-(3,4-dihydroxyphenyl)ethoxy)-octadeca-9,12-diene]",50%,–,–,5.13,activity similar to that of hydroxytyrosol at the three assayed concentrations,7.59

# Source: patent publication US20130267588A1, “HYDROXYTYROSOL ETHERS” (FUNDACIO IMIM, priority 2010, published 2013)
